Measurements as given in patent US20250171715A1, “DETERGENT AND CLEANING AGENT CONTAINING ANTIMICROBIAL PEPTIDE” (HENKEL AG & CO. KGAA, priority 2023, published 2025).

Experiments:
[1] = tested on: Klebsiella pneumoniae ATCC 4352/K2510; type: cell-based; settings: K. pneumoniae; 100 mg/L in water; positive control
Description: (§1) The antibacterial activity of the peptides shown in Table 2 was tested at a concentration of 5,000 mg/L in an MPN suspension test (MPN=Most Probable Number) on various microorganisms (Staphylococcus aureus ATCC 6538/[…], initial bacterial count 3.6E±0.6; Klebsiella pneumoniae ATCC 4352/[…], initial bacterial count 6.1E±06). The respective peptide solutions were dissolved in water (control), detergent without enzyme (A) and detergent with enzyme (B) at a concentration of 5,000 mg/L. The MPN suspension test was performed in deep-well microtiter plates (1,000 μl volume per well), each well containing 800 μl application concentration (AWK, prepared in distilled water) with a 1.25-fold concentration of the test substance (final concentration: 5,000 mg/L). In each case, 100 μl of the bacterial suspension was added (final concentration: 1.0E±08 CFU/ml). […] After at least 5 min and a maximum of 30 min inactivation, the number of living test germ cells was determined. […] For evaluation, the growth in the wells, indicated by turbidity of the nutrient broth, was determined visually or using the Tecan reader. The microbicidal activity was calculated using the following formula: RF=K/D or log 10K-log10D, where RF=reduction factor, K=number of CFU/ml without exposure to the product (water control) and D=number of CFU/ml after exposure to the product.

[2] = tested on: Staphylococcus aureus ATCC 6538/K3212; type: cell-based; settings: S. aureus; 100 mg/L in water; positive control
Description: as §1

## Benzalkonium chloride
[1]
  Log reduction, Water: >4.40
[2]
  Log reduction, Water: >4.65
